Results on eleven compounds are retold here after ChEMBL document CHEMBL1201862, “PubChem BioAssay data set” (2004).

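Tested at 5 concentrations; 48 h exposure; 96-well plates; endpoints linearly interpolated, else capped at highest concentration. GI50 marks 50% less growth.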 Activity calls are given as the source filed them. Rule as the data show it: active = GI50 up to about 1.1 µM and inactive = higher.

Test systems include COLO 205; UACC-62; KM12; SF-295; NCI-H226; A498; MOLT-4; A549; OVCAR-3; SW-620; RXF 393; UO-31; HOP-92; SK-MEL-2; HT-29; OVCAR-4; NCI-H460; NCI/ADR-RES; HL-60; HCC 2998.
Assay in all cases: DTP human tumour cell line panel, 48 h

With `CC(=O)OCCOc1cc2c([nH]c3ccccc32)c(C)c2cccc1-2`, the GI50 (in general, the concentration at which growth is held to half of that of the control) with COLO 205 is 1.7 µM (inactive); in the assay on UACC-62, 2.39 µM (inactive); with KM12 it was 2.34 µM (inactive); with SF-295 it was 3.28 µM (inactive); with NCI-H226 it was 10.3 µM (inactive); with A498, 8.93 µM (inactive). In addition, the GI50 in the assay on MOLT-4 was 3.33 µM (inactive); in the assay with A549, 3.85 µM (inactive); in the assay on OVCAR-3 it was 2.01 µM (inactive); in the assay on SW-620, 2.7 µM (inactive); in the assay with RXF 393, 1.95 µM (inactive); in the assay on UO-31 it was 1.75 µM (inactive). Also, the GI50 in the assay with HOP-92 was 1.86 µM (inactive); in the assay with SK-MEL-2, 2.21 µM (inactive); in the assay with HT-29 it was 3.78 µM (inactive); in the assay with OVCAR-4, 1.77 µM (inactive); with NCI-H460, 2.59 µM (inactive); with NCI/ADR-RES it was 3.53 µM (inactive). Also, the GI50 in the assay with HL-60 was 3.05 µM (inactive).
`Nc1[nH]nc2ccccc12`: the GI50 in the assay on COLO 205 is > 100 µM (inactive); in the assay on UACC-62 it was 73.1 µM (inactive); with KM12, > 100 µM (inactive); with SF-295, 77.8 µM (inactive); in the assay on NCI-H226, > 100 µM (inactive); in the assay on A498 it was > 100 µM (inactive). Further, the GI50 in the assay on MOLT-4 is > 100 µM (inactive); with A549 it was > 100 µM (inactive); in the assay on OVCAR-3 it was > 100 µM (inactive); in the assay with SW-620 it was > 100 µM (inactive); in the assay on RXF 393 it was > 100 µM (inactive); in the assay on UO-31, 83.4 µM (inactive). The GI50 in the assay with HOP-92, with SK-MEL-2, in the assay on HT-29, in the assay on OVCAR-4, in the assay on NCI-H460 and with NCI/ADR-RES was > 100 µM (inactive) each time. Further, the GI50 with HL-60 is > 100 µM (inactive).
For `O=Cc1[nH]c(=O)[nH]c(=O)c1C(=O)O`, the GI50 with COLO 205, in the assay on UACC-62, with KM12, in the assay on HCC 2998, in the assay with SF-295 and in the assay with NCI-H226 was > 100 µM (inactive) each time. Besides, the GI50 in the assay with MOLT-4, in the assay on A549, with OVCAR-3, with SW-620, with RXF 393 and in the assay with UO-31 was > 100 µM (inactive) throughout. The GI50 in the assay with HOP-92, with SK-MEL-2, in the assay with HT-29, in the assay with OVCAR-4, with NCI-H460 and in the assay on NCI/ADR-RES was > 100 µM (inactive) each time. Also, the GI50 with HL-60 is > 100 µM (inactive).
In the case of `COC(=O)NC1(NC(=O)OC)NC(=O)c2cc(OC)c(OC)c(OC)c2N1`, the GI50 was 18.7 µM (inactive) in the assay on COLO 205; 30.1 µM (inactive) with UACC-62; 7.19 µM (inactive) with KM12; 9.14 µM (inactive) with HCC 2998; 12.4 µM (inactive) in the assay on SF-295; 31.1 µM (inactive) in the assay on NCI-H226. Moreover, the GI50 in the assay on A498 is 32.2 µM (inactive); with MOLT-4, 63.2 µM (inactive); with A549, < 0.01 µM (active); with OVCAR-3 it was 54.1 µM (inactive); in the assay with SW-620 it was 18.2 µM (inactive); in the assay with UO-31 it was 46.2 µM (inactive). The GI50 in the assay on SK-MEL-2 was 0.0132 µM (active); in the assay on HT-29, 36.9 µM (inactive); in the assay on OVCAR-4, > 100 µM (inactive); in the assay with NCI-H460, 17.2 µM (inactive); in the assay with NCI/ADR-RES, 15.1 µM (inactive); in the assay with HL-60, 8.15 µM (inactive).
With `Cc1ccc(/N=C/C=C(\Nc2ccc(C)cc2)c2ccc3ccccc3c2)cc1`, the GI50 was 0.571 µM (active) in the assay on COLO 205; 0.331 µM (active) in the assay on UACC-62; 0.299 µM (active) in the assay with KM12; 0.497 µM (active) with SF-295; 1.4 µM (inactive) in the assay with NCI-H226; 10.8 µM (inactive) with A498. In addition, the GI50 in the assay with MOLT-4 was 0.237 µM (active); with A549 it was 2.66 µM (inactive); with OVCAR-3, 0.364 µM (active); in the assay with SW-620, 0.445 µM (active); in the assay with RXF 393, 0.521 µM (active); in the assay with UO-31, 1.07 µM (active). Also, the GI50 in the assay with HOP-92 is 10.6 µM (inactive); with SK-MEL-2, 0.938 µM (active); with HT-29, 0.347 µM (active); in the assay on OVCAR-4, 0.65 µM (active); in the assay on NCI-H460, 0.489 µM (active); in the assay with NCI/ADR-RES it was 0.445 µM (active). For the same compound, the GI50 with HL-60 was 0.34 µM (active).
Turning to `CCC1=C(C)C(=O)N/C1=C\c1[nH]c(C)c([C@H](C)CCN)c1C`, the GI50 with COLO 205 is 16.4 µM (inactive); in the assay with UACC-62 it was 17.3 µM (inactive); in the assay on KM12 it was 15.7 µM (inactive); in the assay with SF-295, 16.5 µM (inactive); in the assay on NCI-H226, 17.1 µM (inactive); in the assay on A498, 18.6 µM (inactive). Further, the GI50 with MOLT-4 is 34 µM (inactive); with A549 it was 16.1 µM (inactive); in the assay with OVCAR-3, 16 µM (inactive); in the assay on SW-620 it was 16.6 µM (inactive); in the assay with UO-31, 15.8 µM (inactive); with HOP-92 it was 14.6 µM (inactive). Further, the GI50 in the assay with SK-MEL-2 was 18.7 µM (inactive); with HT-29 it was 15.7 µM (inactive); in the assay with OVCAR-4, 12.8 µM (inactive); in the assay with NCI-H460 it was 20.3 µM (inactive); in the assay with NCI/ADR-RES, 20 µM (inactive); with HL-60 it was 10 µM (inactive).
As to `CC1CC/C(=C\c2ccc(Cl)cc2)c2nc(N)c(C#N)c(-c3ccc(Cl)cc3)c21` (centres undefined), the GI50 with COLO 205 was 41.4 µM (inactive); with UACC-62, 20.5 µM (inactive); in the assay with KM12, 40.2 µM (inactive); in the assay on HCC 2998, 26.1 µM (inactive); with SF-295, 44.1 µM (inactive); in the assay on NCI-H226, 58.6 µM (inactive). Further, the GI50 with A498 was 26.3 µM (inactive); in the assay on MOLT-4, 14.1 µM (inactive); in the assay on A549 it was 34.8 µM (inactive); with OVCAR-3, 47.1 µM (inactive); in the assay on SW-620, 55.3 µM (inactive); in the assay with UO-31, 27.7 µM (inactive). Besides, the GI50 with SK-MEL-2 is 66.1 µM (inactive); with HT-29, 30.7 µM (inactive); in the assay with OVCAR-4, > 100 µM (inactive); with NCI/ADR-RES, 55.1 µM (inactive); in the assay with HL-60, 3.07 µM (inactive).
Take `NC(Cc1cc(I)c(Oc2ccc(O)c(I)c2)c(I)c1)C(=O)O` (centres undefined) [RATHYRONINE]: the GI50 is > 100 µM (inactive) in the assay on COLO 205; 64.4 µM (inactive) with UACC-62; > 100 µM (inactive) in the assay on KM12; > 100 µM (inactive) in the assay on SF-295; > 100 µM (inactive) in the assay with NCI-H226; 35.7 µM (inactive) in the assay with A498. Moreover, the GI50 was > 100 µM (inactive) in the assay on A549; > 100 µM (inactive) in the assay on OVCAR-3; > 100 µM (inactive) in the assay with SW-620; > 100 µM (inactive) with RXF 393; > 100 µM (inactive) in the assay on UO-31; 82.4 µM (inactive) in the assay with HOP-92. The GI50 is 19.9 µM (inactive) with SK-MEL-2, > 100 µM (inactive) in the assay with HT-29, > 100 µM (inactive) in the assay on OVCAR-4 and > 100 µM (inactive) with NCI/ADR-RES.
In the case of `Nc1ccc(Oc2ccc(C34CC5C6CC7(c8ccc(Oc9ccc(N)cc9)cc8)CC5C(C3)C(C7)C6C4)cc2)cc1`, the GI50 in the assay on COLO 205, in the assay on UACC-62, in the assay on KM12, in the assay on SF-295, with NCI-H226 and in the assay with A498 was > 100 µM (inactive) in each case. The GI50 with MOLT-4, in the assay on A549, in the assay with OVCAR-3, in the assay on SW-620, with RXF 393 and in the assay on UO-31 was > 100 µM (inactive) throughout. Moreover, the GI50 with HOP-92, in the assay on SK-MEL-2, in the assay with HT-29, in the assay on OVCAR-4, with NCI-H460 and in the assay with NCI/ADR-RES was > 100 µM (inactive) throughout. In addition, in the assay on HL-60, the GI50 is > 100 µM (inactive).
As for `COC(=O)c1cn(CCCCO)nn1`, the GI50 in the assay on COLO 205, in the assay on UACC-62, in the assay on KM12, with HCC 2998, in the assay with SF-295 and in the assay with NCI-H226 was > 100 µM (inactive) throughout. Moreover, the GI50 in the assay with MOLT-4, in the assay with A549, in the assay on SW-620, in the assay with RXF 393, in the assay on UO-31 and in the assay with HOP-92 was > 100 µM (inactive) throughout. Also, the GI50 with SK-MEL-2, in the assay on HT-29, in the assay on OVCAR-4, in the assay with NCI-H460 and in the assay with NCI/ADR-RES was > 100 µM (inactive) in each case.
In the case of `CCOC(=O)CC(=O)NC1CC2CCC1(C)C2(C)C` (centres undefined), the GI50 in the assay with COLO 205, with UACC-62, in the assay with KM12, with HCC 2998, in the assay with SF-295 and in the assay on NCI-H226 was > 100 µM (inactive) in each case. Also, the GI50 in the assay on A498, with MOLT-4, with A549, in the assay on OVCAR-3, in the assay with SW-620 and in the assay on RXF 393 was > 100 µM (inactive) in each case. Also, the GI50 in the assay with UO-31, in the assay on HT-29, in the assay with OVCAR-4, in the assay with NCI-H460, in the assay with NCI/ADR-RES and in the assay on HL-60 was > 100 µM (inactive) in each case.
